These results are taken from PubChem BioAssay AID1508591.

For this series the following is noted: rat; liver microsomes; pH 7.4; 15.0 min; 1.0 µM.

What is called half-life is the time needed for the level to fall by half in the phase considered. A lower half-life goes with rapid decline. Regarding `COc1ccc(-c2c(-c3cc(C(=O)O)ccn3)ncn2C)cc1`, the half-life is over 30 min.
The figure for `NC(=O)c1sc2nc3c(c(-c4cccs4)c2c1N)CCCC3` is 2 min; for `NC1CCC(Nc2nc(Nc3ccc(C(=O)N4CCCCC4)cc3)c3ncn(-c4cccc(F)c4)c3n2)CC1` (stereo unspecified) it is 23 min; for `Cc1nsc(N)c1C(=O)N(C)CCOc1ccccc1Cl` it is 3.7 min.
The result for `CN(C)CC/C=C1\c2ccccc2Sc2ccc(Cl)cc21` reads 1.76 min; that for `CSc1ccc(/C=C/c2nc3ccccc3n2S(=O)(=O)c2cccc(Cl)c2)cc1`, 3.54 min.
The result for `NC(=O)C1CCN(c2nc(-c3ccccc3C(F)(F)F)cs2)CC1` reads 5.58 min; that for `O=C1CN(C(=O)CCC(=O)N2CCc3c(nc4cc(-c5ccccc5)[nH]n4c3=O)C2)c2ccccc2N1`, over 30 min; that for `FC(F)(F)c1cccc(Sc2nc(-c3ccccc3)nnc2C(F)(F)F)c1`, 11 min.
As for `CCCN1CNc2c(c(=O)[nH]c(=S)n2CCc2ccc(OC)c(OC)c2)C1`, the half-life was 18 min.
The result for `CC(=O)Nc1cccc(-c2nc(-c3c(C)noc3C)cc3c2cc(-c2ccccc2)n3C)c1` reads over 30 min; that for `CN1C(=O)c2ccccc2[S@](=O)c2ccc(C(=O)NCCc3cccs3)cc21`, 7.2 min.
The result for `c1ccc2c(N3CCOCC3)nc(-c3ccncc3)nc2c1` reads 10 min.
The figure for `c1cn2cc(-c3ccc4cn[nH]c4c3)nc(Nc3ccc(N4CCOCC4)cc3)c2n1` is 24.9 min.
As for `O=C(Cn1ccn2nc3c(c2c1=O)CCCCC3)Nc1ccc2c(c1)OCO2`, the half-life is 6.81 min.
The result for `C[C@@]1(O)[C@H](O)[C@@H](CO)O[C@H]1n1ccc(N)nc1=O` reads over 30 min; that for `CNc1cc(-c2nc(Nc3ccc(F)c(F)c3)c3ccccc3n2)ccn1`, 8.2 min.
Turning to `O=C(Nc1ccc2oc(-c3ccncc3)nc2c1)c1ccccc1Cl`, the half-life is over 30 min.
As for `O=C(O)c1ccccc1C(=O)Nc1ccc(-c2ccccc2)cc1`, the half-life is over 30 min.
The figure for `CCc1ccccc1-n1c(SCC(=O)Nc2ccc(C)cc2)nc2n[nH]c(C)c2c1=N` is 1.25 min; for `CNc1oc(-c2ccccc2-c2ccccc2)nc1C#N` it is 5.8 min; for `NC(=O)C1CCN(c2nc(-c3cccc(F)c3)cs2)CC1` it is 1.95 min.
`O=C1CCCC2=C1C(c1[nH]ncc1Cl)N=C(Nc1nc3c(Br)cccc3o1)N2` (stereo unspecified) registered a half-life of 3.2 min.
The figure for `O=C(NCCc1nc2ccccc2n1CCO)C1CCCCC1` is 20.3 min; for `CC(=O)Nc1nc(C)c(-c2ccc(Cl)c(S(=O)(=O)NCCO)c2)s1` it is over 30 min.
The result for `Cc1cccc(N2CCN(c3nc4ccccc4c4nnc(C)n34)CC2)c1C` reads 17.6 min; that for `CC(C)(C)NS(=O)(=O)c1ccc(-c2ccc3[nH]nc(N)c3c2)cc1`, 17.2 min; that for `COc1cccc(O)c1CNc1ccc(S(=O)(=O)Nc2nccs2)cc1`, 8.9 min.
The result for `NC1CCN(c2nc(-c3ccc(Br)cc3)cs2)CC1` reads over 30 min.
`Cc1ccc(-c2csc(NC(=O)c3ccccc3NS(=O)(=O)c3ccc(C)cc3)n2)cc1` had a half-life of 2.6 min.
The figure for `CCCS(=O)(=O)c1nc(NC2CC2)cc(-c2ccc3c(ccn3C3CC(C)(C)NC(C)(C)C3)c2)n1` is over 30 min; for `Cc1ccc(-c2cc(C(=O)Nc3cccc(S(N)(=O)=O)c3)c3ccccc3n2)cc1C` it is 12 min.
For the molecule `O=C(Nc1ncc(Cc2ccc(C(F)(F)F)cc2)s1)c1cnc(-c2ccccc2)o1`, the half-life was over 30 min.
The figure for `O=C1Nc2ccccc2C1Cc1cc(Cl)c(O)c(Cl)c1` (stereo unspecified) is 24 min; for `O=C(Nc1nc(-c2ccccc2)cs1)c1ccncc1NS(=O)(=O)c1ccc(F)cc1F` it is 6.5 min; for `COc1cccc(CNc2ccc(S(=O)(=O)Nc3nccs3)cc2)c1O` it is over 30 min.
The result for `COc1nccc(-c2nc(Nc3ccc(F)c(F)c3)c3ccccc3n2)c1OC` reads 26 min; that for `Cc1cccc(-n2cnc3cc(C(=O)N4CCCCCC4)ccc32)c1`, 2.9 min.
As for `Cc1cccc(C)c1Nc1c(-c2ccccn2)nc2ccc(Cl)cn12`, the half-life stood at 1.86 min.
The result for `FC(F)(F)c1cccc(Nc2ccc(CNc3nc(-c4ccccc4C(F)(F)F)nc4ccccc34)cc2)c1` reads 15.6 min.
The figure for `CNC(=O)C1=C(C)NC(Nc2nc3ccccc3o2)=NC1c1[nH]ncc1Cl` (stereo unspecified) is 5.7 min.
The figure for `Cc1cc(NS(=O)(=O)c2ccc(N(C)C(=O)Cc3ccc(Cl)c(Cl)c3)cc2)no1` is over 30 min.
`CN(C)C(=O)c1nc(-c2ccc(Cl)cc2Cl)c2cnccn12` came in with a half-life of 6.29 min.
The result for `COc1ccc(NC(=O)c2[nH]c(C)c(C(C)=O)c2C)cc1S(=O)(=O)Nc1cccc(C#N)c1` reads 15 min; that for `CC(C)(N)C(=O)N[C@H](COCc1ccccc1)C(=O)N1CCC2(CC1)CN(S(C)(=O)=O)c1ccccc12`, 4.99 min; that for `O=C1Nc2ccccc2/C1=C\c1ccc(C(=O)O)cc1`, over 30 min.
The result for `NC(=O)C1CCN(c2nc(-c3ccccc3[N+](=O)[O-])cs2)CC1` reads 3.9 min; that for `Cc1ccc(S(=O)(=O)Nc2ccccc2C(=O)Nc2nc(-c3ccccc3)co2)cc1`, 3.9 min; that for `O=C1CCCC2=C1C(c1ccccc1C(F)(F)F)N=C(Nc1nc3ccccc3o1)N2` (stereo unspecified), 10 min.
`Cc1ccc(NS(=O)(=O)c2cccc(C(=O)Nc3nc(-c4ccccc4)cs3)c2)cc1` displayed a half-life of 6.7 min. The half-life values of the last two molecules are within 1.5-fold of each other.
For `CNc1oc(-c2ccc(-c3ccccc3)cc2)nc1C#N`, the half-life is over 30 min.
`Cc1cc(NS(=O)(=O)c2ccc(NCCc3ccc(Cl)c(Cl)c3)cc2)no1` gave a half-life of 12 min.
The molecule `CCc1ccc(NC(=O)c2[nH]c(C)c(C(C)=O)c2C)cc1S(=O)(=O)Nc1cccc(C#N)c1` gave a half-life of 6.1 min.
The result for `COc1ccc(-c2ccc3nc(-c4cc(C)cc(C)c4)oc3c2)c(OC)c1OC` reads over 30 min.
Regarding `O=C(Nc1ncnc2sc3c(c12)CCC3)c1ccco1`, the half-life came to 5.6 min.
As to `COc1ccc(-n2nc(C3CCCN(C(=O)Cc4ccccn4)C3)[nH]c2=O)cc1` (stereo unspecified), the half-life was over 30 min.
The figure for `Nc1c(-c2ccccc2)cnc2c(-c3ccccc3)cnn12` is over 30 min.
The figure for `CCS(=O)(=O)c1cccc(C(=O)Nc2ccc(-c3nc4ccccc4s3)c(O)c2)c1` is over 30 min; for `CC/C=C\CC1C(=O)CCC1CC(=O)OC` (stereo unspecified) it is over 30 min; for `CCCN(CCC)CCc1cccc2c1CC(=O)N2` it is 2.96 min.
`CCS(=O)(=O)N1CC(CC#N)(n2cc(-c3ncnc4[nH]ccc34)cn2)C1` displayed a half-life of over 30 min.
The figure for `O=C(Nc1ccc([S+](=O)([O-])Nc2nccs2)cc1)c1ccccn1` is 2.4 min; for `O=C(O)c1ccc(Nc2nc(-c3cc4ccccc4oc3=O)cs2)cc1O` it is over 30 min; for `Cc1c(O)ccc2c1OC(C)(C)CC2` it is 3.9 min.
The figure for `O=C1CCCC2=C1C(C1CCCCC1Cl)N=C(NC1NC3CCCCC3S1)N2` (stereo unspecified) is 10.9 min.
In the case of `COc1cc(-c2nc(Nc3ccc(F)c(F)c3)c3ccccc3n2)ccn1`, the half-life was over 30 min.
Turning to `Nc1nc2c(s1)C(c1ccccc1)CC(=O)N2` (stereo unspecified), the half-life was over 30 min.
The result for `CC(=O)N1CCN(c2ccc(OCc3nn(C)c(C)c3-c3cccc4c(CCCOc5cc(C)c(Cl)c(C)c5)c(C(=O)O)n(Cc5cccnc5)c34)cc2)CC1` reads 8.9 min; that for `COc1ccccc1C(=O)N1CCc2cc(-c3nc(NC(=O)Cc4ccc5c(c4)OCO5)sc3C)ccc21`, 9.6 min; that for `CNc1oc(-c2cccc3ccccc23)nc1C#N`, 17.7 min.
For `CC1(C)CCC(CN2CCN(c3ccc(C(=O)NS(=O)(=O)c4ccc(NCC5CCOCC5)c([N+](=O)[O-])c4)c(Oc4cnc5[nH]ccc5c4)c3)CC2)=C(c2ccc(Cl)cc2)C1`, the half-life was over 30 min.
The figure for `CC(=O)N1CCC2(CCCN(c3ccc(-c4ccccc4)cc3)C2)CC1` is 16 min.
The result for `FC(F)(F)c1cccc(N2CCN(C(=S)Nc3ccccn3)CC2)c1` reads 15.5 min.
Molecule `Cc1ccccc1C(=O)Nc1sc2c(c1C(=O)NCc1ccco1)CCC(C(C)(C)C)C2` (stereo unspecified) returned a half-life of 23.9 min. This half-life lies about 1.5-fold higher than the previous one.
`COC(=O)C1=C(C)NC(C)=C(C(=O)O[C@@H]2CCCN(Cc3ccccc3)C2)[C@@H]1c1cccc([N+](=O)[O-])c1`: the half-life came to 1.3 min.
The figure for `O=C(Nc1ccc([N+](=O)[O-])cc1Cl)c1cc(Cl)ccc1O` is over 30 min; for `COc1cc2c(cc1OC)C(C[C@H]1CN(S(=O)(=O)c3cccc(C#N)c3)CC[C@H]1CC(=O)O)=NCC2` it is over 30 min; for `CCCCNC(=O)CN1CCN(c2ncc(NC(=O)c3ccc(Cl)cc3)cc2C(=O)O)CC1` it is over 30 min.
The result for `O=S(=O)(Nc1cccc2ccccc12)c1ccc(NCc2ccc(Br)cc2O)cc1` reads 7.4 min; that for `COc1cc2c(Oc3ccc(-c4cnc(Nc5ccc(F)cc5)n(C)c4=O)cc3F)ccnc2cc1OCCCN1CCOCC1`, over 30 min; that for `CCOc1ccc(CCNC(=O)c2cc3sccc3n2Cc2ccccn2)cc1OCC`, 1.5 min.
The figure for `O=C(NCc1cccc(C(F)(F)F)c1)c1ccc(CN2CCCCC2)cc1` is 15 min.
Turning to `COc1ccc(CNc2ccc(S(=O)(=O)Nc3nccs3)cc2)cc1O`, the half-life was over 30 min.
`CNCc1ccc(-c2cc(-c3nc(-c4ccc(S(=O)(=O)C(C)C)cc4)cnc3N)on2)cc1` had a half-life of over 30 min.
For `CC1CCCCN1c1ncnc(N)c1[N+](=O)[O-]` (stereo unspecified), the half-life is 15 min.
The figure for `COc1cc([C@@H]2c3cc4c(cc3[C@H](O)[C@H]3COC(=O)[C@H]23)OCO4)cc(OC)c1OC` is over 30 min; for `O=C(O)c1ccccc1-c1ccc(/C=c2\sc3nc4cc(Br)cnc4n3c2=O)o1` it is 22 min.
The result for `Oc1ccc(CNc2ccccc2Br)c2cccnc12` reads 4.46 min; that for `CC(C)(C)n1cnc2cc(C(=O)N3CCCCC3)ccc21`, 9.7 min; that for `Cc1ccc(S(=O)(=O)Nc2cnccc2C(=O)Nc2nc(-c3cc(Br)cs3)cs2)cc1`, over 30 min.
The result for `CCCCCCN(CCCCCC)C(=O)Cc1c(-c2ccc(F)cc2)[nH]c2ccccc12` reads 2.5 min.
